Patent publication US3985875A, “ω-(N-acylamino)alkylphosphoryl ethanolamines, pharmaceutical compositions containing them, and their uses” (Dainippon Pharmaceutical Co., Ltd., priority 1974, dated 1976)
Like-named read-outs stand apart in the source and are kept apart here.

How the values were obtained:
[1] = test system: renal hypertensive rats; test: Antihypertensive activity in rats, p.o. (Table 4); format: in vivo, rat; conditions: 100 mg/kg/day p.o.
Description: (§1) An aqueous solution or suspension in peanut oil of each test compound as administered intramuscularly (i.m.) or orally (p.o.) at a dose of 30 to 100 mg/kg (body weight)/day once every morning over the period of 6 to 7 days.
(§2) The blood pressure of each rat was measured daily before and 5 hours after each administration. Furthermore, the blood pressure was measured every morning after drug withdrawal over a period of 3 to 6 days.
(§3) Test compounds (1)-(4) decreased the blood pressure of renal hypertensive rats with a dose of 30 mg/kg/day i.m.. […] The antihypertensive rats with a dose of 100 mg/kg/day p.o..

[2] = biological target: T1, Renin (Homo sapiens, UniProt P00797); test: Renin-inhibitory activity, Method I (inhibition of Angiotensin I formation, RIA); format: biochemical; conditions: for inhibition at 313 µg/mL: 0.313 mg/ml; for inhibition at 625 µg/mL: 0.625 mg/ml; for inhibition at 1250 µg/mL: 1.25 mg/ml; for inhibition at 2500 µg/mL: 2.5 mg/ml
T1 sequence (P00797 67-406): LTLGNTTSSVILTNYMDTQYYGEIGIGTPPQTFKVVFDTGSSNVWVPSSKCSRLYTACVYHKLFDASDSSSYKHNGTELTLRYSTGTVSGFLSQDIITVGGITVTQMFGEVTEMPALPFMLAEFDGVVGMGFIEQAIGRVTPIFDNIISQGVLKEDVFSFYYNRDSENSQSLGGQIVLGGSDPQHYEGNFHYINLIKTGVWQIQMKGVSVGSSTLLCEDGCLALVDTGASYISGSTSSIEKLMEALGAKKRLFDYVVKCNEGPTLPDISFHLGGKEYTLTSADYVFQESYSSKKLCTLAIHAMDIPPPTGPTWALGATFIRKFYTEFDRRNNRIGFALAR
Description: Renin (see E. Haas et al. Circulation Research, Vol. 19, p. 739, 1966 and Vol. 31, p. 65, 1972) was incubated in Angiotensinogen at 37° C. for 2 to 6 hours. Similarly, renin was incubated under the same conditions in the presence of 0.313 to 2.5 mg/ml. of each of the test compounds listed above. The amount of Angiotensin I was measured by radioimmunoassay (RIA) (E. Haber et al., J. Clin. Endocrinol., Vol. 29, p. 1349, 1969), and made the renin activity.
(§4) The results are shown in Table 1 (the rate of inhibiting the formation of Angiotensin I, as determined by Method I, when the plasma was incubated at 37° C. for 2, 4 and 6 hours respectively), and Table 2 (the rate of inhibiting the formation of Angiotensin I when the plasma was incubated at 37° C. for 4 hours, with the compound concentration of 1.25 mg/ml.)

[3] = test system: plasma cholesterol level; test: Cholesterol-lowering activity in rats (modified Greenberg method); format: in vivo, rat; conditions: 100 mg/Kg oral once a day, 5 consecutive days
Description: The effect of each of the test compounds on the plasma cholesterol level was examined in rats according to a slightly modified form of the C. M. Greenberg et al. method described in Am. J. Physiol., Vol. 202 (1961), p. 732. Rats were treated once a day with a 100 mg/Kg oral dose for 5 consecutive days instead of 7 days.

[4] = biological target: T2, High renin plasma (Canis lupus familiaris, UniProt Q6DYE7); test: Renin-inhibitory activity, Method II (high renin plasma of dog, inhibition of Angiotensin I formation); format: biochemical; conditions: Table 2; 37°C, 4 hours, 1.25 mg/ml; read-out: Rate of inhibiting the formation of Angiotensin I determined by Method II
T2 construct: High renin plasma prepared by constriction of the renal artery of a dog anesthetized with Nembutal; from tissue; host or cells: plasma of a dog with constricted renal artery
T2 sequence (Q6DYE7 66-403): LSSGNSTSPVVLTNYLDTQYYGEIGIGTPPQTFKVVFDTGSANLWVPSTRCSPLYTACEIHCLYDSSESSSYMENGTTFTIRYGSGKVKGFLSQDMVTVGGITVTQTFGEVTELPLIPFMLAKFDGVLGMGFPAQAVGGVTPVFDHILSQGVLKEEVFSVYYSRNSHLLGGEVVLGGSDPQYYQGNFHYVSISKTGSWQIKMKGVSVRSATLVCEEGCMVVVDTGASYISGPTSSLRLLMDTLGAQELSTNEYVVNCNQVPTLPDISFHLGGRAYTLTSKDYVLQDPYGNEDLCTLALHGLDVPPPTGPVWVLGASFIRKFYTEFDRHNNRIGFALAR
Description: High renin plasma prepared by constriction of the renal artery of a dog anesthetized with Nembutal (the plasma which when incubated at 37°40 C. for 6 hours, yields 30 to […]. of Angiotensin I) was incubated at 37° C. for 2 to 6 hours in the same way as in Method I, and also under the same conditions in the presence of 1.25 mg/ml. of each of the test compounds.
as §4

[5] = test system: renal hypertensive rats; test: Antihypertensive activity in renal hypertensive rats, i.m. (Table 3); format: in vivo, rat; conditions: 30 mg/kg/day i.m.
Description: as §1, §2, §3

[6] = 1st day, 0 h (immediately before administration)
[7] = 1st day, 5 hours after administration
[8] = 2nd day, 0 h (immediately before administration)
[9] = 2nd day, 5 hours after administration
[10] = 3rd day, 0 h (immediately before administration)
[11] = 3rd day, 5 hours after administration
[12] = 4th day, 0 h (immediately before administration)
[13] = 4th day, 5 hours after administration
[14] = 5th day, 0 h (immediately before administration)
[15] = 5th day, 5 hours after administration
[16] = 6th day, 0 h (immediately before administration)
[17] = 6th day, 5 hours after administration
[18] = 7th day, 0 h (immediately before administration)
[19] = 7th day, 5 hours after administration
[20] = incubating time 2 hours, read-out: Rate of inhibiting the formation of Angiotensin I
[21] = incubating time 4 hours, read-out: Rate of inhibiting the formation of Angiotensin I
[22] = incubating time 6 hours, read-out: Rate of inhibiting the formation of Angiotensin I
[23] = Table 2, 37°C, 4 hours, read-out: Rate of inhibiting the formation of Angiotensin I determined by Method I

Structure (SMILES): CC(Oc1ccc(Oc2ccc(Cl)cc2)cc1)C(=O)NCCOP(=O)(O)OCCN (stereo not drawn) [Compound (6), 2-{α-[4-(4'-chlorophenoxy)phenoxy]propionylamino} ethylphosphoryl ethanolamine]
- Changes of blood pressure after drug withdrawal ([1]; 1st day after withdrawal): -37 mmHg
- Changes of blood pressure [1, 6]: 0 mmHg
- Changes of blood pressure [1, 7]: -9 mmHg
- Changes of blood pressure after drug withdrawal ([1]; 2nd day after withdrawal): -32 mmHg
- Changes of blood pressure [1, 8]: +4 mmHg
- Changes of blood pressure [1, 9]: -4 mmHg
- Changes of blood pressure after drug withdrawal ([1]; 3rd day after withdrawal): -18 mmHg
- Changes of blood pressure [1, 10]: -14 mmHg
- Changes of blood pressure [1, 11]: -25 mmHg
- Changes of blood pressure after drug withdrawal ([1]; 4th day after withdrawal): -8 mmHg
- Changes of blood pressure [1, 12]: -18 mmHg
- Changes of blood pressure [1, 13]: -27 mmHg
- Changes of blood pressure after drug withdrawal ([1]; 5th day after withdrawal): -2 mmHg
- Changes of blood pressure [1, 14]: -27 mmHg
- Changes of blood pressure [1, 15]: -41 mmHg
- Changes of blood pressure after drug withdrawal ([1]; 6th day after withdrawal): +1 mmHg
- Changes of blood pressure [1, 16]: -34 mmHg
- Changes of blood pressure [1, 17]: -47 mmHg
- Changes of blood pressure [1, 18]: -36 mmHg
- Changes of blood pressure [1, 19]: -51 mmHg
- inhibition at 313 µg/mL [2, 20]: 25%
- inhibition at 313 µg/mL [2, 21]: 33%
- inhibition at 313 µg/mL [2, 22]: 33%
- inhibition at 625 µg/mL [2, 20]: 50%
- inhibition at 625 µg/mL [2, 21]: 56%
- inhibition at 625 µg/mL [2, 22]: 53%
- inhibition at 1250 µg/mL [2, 20]: 75%
- inhibition at 1250 µg/mL [2, 21]: 78%
- inhibition at 1250 µg/mL [2, 22]: 67%
- inhibition at 2500 µg/mL [2, 20]: 100%
- inhibition at 2500 µg/mL [2, 21]: 93%
- inhibition at 2500 µg/mL [2, 22]: 89%
- inhibition at 1250 µg/mL [2, 23]: 78%
- Cholesterol-lowering activity [3]: 48.1%
- inhibition at 1250 µg/mL [4]: 55%

Structure (SMILES): NCCOP(=O)(O)OCCNC(=O)COc1ccc(Oc2ccc(Cl)cc2)cc1 [Compound (5), 2-[4-(4'-chlorophenoxy)phenoxyacetylamino]ethylphosphoryl ethanolamine]
- Changes of blood pressure after drug withdrawal ([1]; 1st day after withdrawal): -49 mmHg
- Changes of blood pressure [1, 6]: 0 mmHg
- Changes of blood pressure [1, 7]: +1 mmHg
- Changes of blood pressure after drug withdrawal ([1]; 2nd day after withdrawal): -34 mmHg
- Changes of blood pressure [1, 9]: -9 mmHg
- Changes of blood pressure after drug withdrawal ([1]; 3rd day after withdrawal): -26 mmHg
- Changes of blood pressure [1, 10]: -17 mmHg
- Changes of blood pressure [1, 11]: -44 mmHg
- Changes of blood pressure after drug withdrawal ([1]; 4th day after withdrawal): -21 mmHg
- Changes of blood pressure [1, 12]: -21 mmHg
- Changes of blood pressure [1, 13]: -41 mmHg
- Changes of blood pressure after drug withdrawal ([1]; 5th day after withdrawal): -15 mmHg
- Changes of blood pressure [1, 14]: -34 mmHg
- Changes of blood pressure [1, 15]: -43 mmHg
- Changes of blood pressure after drug withdrawal ([1]; 6th day after withdrawal): -7 mmHg
- Changes of blood pressure [1, 16]: -37 mmHg
- Changes of blood pressure [1, 17]: -49 mmHg
- Changes of blood pressure [1, 18]: -40 mmHg
- Changes of blood pressure [1, 19]: -49 mmHg
- inhibition at 313 µg/mL [2, 20]: 0%
- inhibition at 313 µg/mL [2, 21]: 33%
- inhibition at 313 µg/mL [2, 22]: 40%
- inhibition at 625 µg/mL [2, 20]: 50%
- inhibition at 625 µg/mL [2, 21]: 50%
- inhibition at 625 µg/mL [2, 22]: 53%
- inhibition at 1250 µg/mL [2, 20]: 75%
- inhibition at 1250 µg/mL [2, 21]: 80%
- inhibition at 1250 µg/mL [2, 22]: 80%
- inhibition at 2500 µg/mL [2, 20]: 100%
- inhibition at 2500 µg/mL [2, 21]: 93%
- inhibition at 2500 µg/mL [2, 22]: 92%
- inhibition at 1250 µg/mL [2, 23]: 78%
- Cholesterol-lowering activity [3]: 48.6%
- inhibition at 1250 µg/mL [4]: 56%

Structure (SMILES): CCC=CCC=CCC=CCCCCCCCC(=O)NCCCOP(=O)(O)OCCN [Compound (2), 3-(Octadeca-9,12,15-trienoylamino)propylphosphoryl ethanolamine]
- inhibition at 313 µg/mL [2, 20]: 25%
- inhibition at 313 µg/mL [2, 21]: 27%
- inhibition at 313 µg/mL [2, 22]: 22%
- inhibition at 625 µg/mL [2, 20]: 50%
- inhibition at 625 µg/mL [2, 21]: 45%
- inhibition at 625 µg/mL [2, 22]: 47%
- inhibition at 1250 µg/mL [2, 20]: 75%
- inhibition at 1250 µg/mL [2, 21]: 78%
- inhibition at 1250 µg/mL [2, 22]: 80%
- inhibition at 2500 µg/mL [2, 20]: 93%
- inhibition at 2500 µg/mL [2, 21]: 100%
- inhibition at 2500 µg/mL [2, 22]: 100%
- inhibition at 1250 µg/mL [2, 23]: 78%
- Changes of blood pressure after drug withdrawal ([5]; 1st day after withdrawal): -34 mmHg
- Changes of blood pressure [5, 6]: 0 mmHg
- Changes of blood pressure [5, 7]: -17 mmHg
- Changes of blood pressure after drug withdrawal ([5]; 2nd day after withdrawal): -21 mmHg
- Changes of blood pressure [5, 8]: -1 mmHg
- Changes of blood pressure [5, 9]: -26 mmHg
- Changes of blood pressure after drug withdrawal ([5]; 3rd day after withdrawal): -7 mmHg
- Changes of blood pressure [5, 10]: -20 mmHg
- Changes of blood pressure [5, 11]: -31 mmHg
- Changes of blood pressure [5, 12]: -22 mmHg
- Changes of blood pressure [5, 13]: -34 mmHg
- Changes of blood pressure [5, 14]: -23 mmHg
- Changes of blood pressure [5, 15]: -39 mmHg
- Changes of blood pressure [5, 16]: -29 mmHg
- Changes of blood pressure [5, 17]: -44 mmHg
- inhibition at 1250 µg/mL [4]: 59%
